In PubChem BioAssay AID2060889 (Molecular Pharmacology Branch, DTP, NCI, 2025):

Test system: LG0567-F671-PDC complex spheroids viability
Experiment: Anticancer human tumor LG0567-F671-PDC patient-derived lung adenocarcinoma cell line growth inhibition [RAS]
Details: for IC50: curve of first compound; for viability, T/C: stronger effect = lower value; active = viability on the fitted dose curve at most 10% of control; inactive = the rest
How it was run: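 Agents were tested in combination matrices in half-log decrements from a top concentration at or near clinical Cmax (10 microM if undetermined). Targets were multi-cell spheroids of tumour lines plus HUVEC and MSC stromal cells.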

[1] = second compound 0.000949 µM, first compound 0.00316 µM
[2] = second compound 0.000949 µM, first compound 0.01 µM
[3] = second compound 0.000949 µM, first compound 0.0316 µM
[4] = second compound 0.000949 µM, first compound 0.1 µM
[5] = second compound 0.000949 µM, first compound 0.316 µM
[6] = second compound 0.000949 µM, first compound 1 µM
[7] = second compound 0.003 µM, first compound 0.00316 µM
[8] = second compound 0.003 µM, first compound 0.01 µM
[9] = second compound 0.003 µM, first compound 0.0316 µM
[10] = second compound 0.003 µM, first compound 0.1 µM
[11] = second compound 0.003 µM, first compound 0.316 µM
[12] = second compound 0.003 µM, first compound 1 µM
[13] = second compound 0.00949 µM, first compound 0.00316 µM
[14] = second compound 0.00949 µM, first compound 0.01 µM
[15] = second compound 0.00949 µM, first compound 0.0316 µM
[16] = second compound 0.00949 µM, first compound 0.1 µM
[17] = second compound 0.00949 µM, first compound 0.316 µM
[18] = second compound 0.00949 µM, first compound 1 µM
[19] = second compound 0.03 µM, first compound 0.00316 µM
[20] = second compound 0.03 µM, first compound 0.01 µM
[21] = second compound 0.03 µM, first compound 0.0316 µM
[22] = second compound 0.03 µM, first compound 0.1 µM
[23] = second compound 0.03 µM, first compound 0.316 µM
[24] = second compound 0.03 µM, first compound 1 µM
[25] = second compound 0.0949 µM, first compound 0.00316 µM
[26] = second compound 0.0949 µM, first compound 0.01 µM
[27] = second compound 0.0949 µM, first compound 0.0316 µM
[28] = second compound 0.0949 µM, first compound 0.1 µM
[29] = second compound 0.0949 µM, first compound 0.316 µM
[30] = second compound 0.0949 µM, first compound 1 µM
[31] = second compound 0.3 µM, first compound 0.00316 µM
[32] = second compound 0.3 µM, first compound 0.01 µM
[33] = second compound 0.3 µM, first compound 0.0316 µM
[34] = second compound 0.3 µM, first compound 0.1 µM
[35] = second compound 0.3 µM, first compound 0.316 µM
[36] = second compound 0.3 µM, first compound 1 µM
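Note: spheroids exposed to compound for seven days before readout.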
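Throughout, for IC50: luminescence signal used as a proxy for viable cells.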

C=CC(=O)N1CCN(c2nc(OCC3CCCN3C)nc3c(F)c(-c4nc(N)cc(C)c4C(F)(F)F)c(Cl)cc23)C(C)C1 (stereo unspecified) + CCn1c(-c2cc(N3CCN(C)CC3)cnc2C(C)OC)c2c3cc(ccc31)-c1csc(n1)CC(NC(=O)C1CC1C)C(=O)N1CCCC(N1)C(=O)OCC(C)(C)C2
< 3.16 nM: IC50 (second compound 0.000949 µM) | IC50 (second compound 0.003 µM) | IC50 (second compound 0.00949 µM) | IC50 (second compound 0.03 µM) | IC50 (second compound 0.0949 µM) | IC50 (second compound 0.3 µM)
active: viability, T/C [1] 9.35% | viability, T/C [2] 9.1% | viability, T/C [3] 8% | viability, T/C [4] 8.66% | viability, T/C [5] 7.95% | viability, T/C [6] 7.17% | viability, T/C [7] 5.52% | viability, T/C [8] 6.02% | viability, T/C [9] 5.86% | viability, T/C [10] 7.54% | viability, T/C [11] 7.84% | viability, T/C [12] 6.72% | viability, T/C [13] 5.09% | viability, T/C [14] 4.57% | viability, T/C [15] 5.64% | viability, T/C [16] 4.78% | viability, T/C [17] 5.6% | viability, T/C [18] 4.86% | viability, T/C [19] 3.64% | viability, T/C [20] 3.58% | viability, T/C [21] 3.59% | viability, T/C [22] 3.48% | viability, T/C [23] 4.15% | viability, T/C [24] 3.55% | viability, T/C [25] 3.37% | viability, T/C [26] 3.02% | viability, T/C [27] 2.73% | viability, T/C [28] 2.71% | viability, T/C [29] 2.59% | viability, T/C [30] 3.04% | viability, T/C [31] 2.73% | viability, T/C [32] 2.79% | viability, T/C [33] 2.44% | viability, T/C [34] 2.81% | viability, T/C [35] 2.66% | viability, T/C [36] 2.96%

CC1(O)CCCC1n1c(=O)c(C(F)F)cc2cnc(NC3CCN(S(C)(=O)=O)CC3)nc21 (stereo unspecified) + C=CC(=O)N1CCN(c2nc(OCC3CCCN3C)nc3c(F)c(-c4nc(N)cc(C)c4C(F)(F)F)c(Cl)cc23)C(C)C1
inactive: viability, T/C (second compound 0.00316 µM, first compound 0.0316 µM) 20.1% | viability, T/C (second compound 0.00316 µM, first compound 0.1 µM) 16.5% | viability, T/C (second compound 0.00316 µM, first compound 0.316 µM) 20.5% | viability, T/C (second compound 0.00316 µM, first compound 1 µM) 23.8% | viability, T/C (second compound 0.00316 µM, first compound 3.16 µM) 20.7% | viability, T/C (second compound 0.00316 µM, first compound 10 µM) 14% | viability, T/C (second compound 0.01 µM, first compound 0.0316 µM) 16.5% | viability, T/C (second compound 0.01 µM, first compound 0.1 µM) 15% | viability, T/C (second compound 0.01 µM, first compound 0.316 µM) 16.2% | viability, T/C (second compound 0.01 µM, first compound 1 µM) 19.1% | viability, T/C (second compound 0.01 µM, first compound 3.16 µM) 20.6% | viability, T/C (second compound 0.01 µM, first compound 10 µM) 15.1% | viability, T/C (second compound 0.0316 µM, first compound 0.0316 µM) 13.8% | viability, T/C (second compound 0.0316 µM, first compound 0.1 µM) 12.9% | viability, T/C (second compound 0.0316 µM, first compound 0.316 µM) 17.8% | viability, T/C (second compound 0.0316 µM, first compound 1 µM) 18.3% | viability, T/C (second compound 0.0316 µM, first compound 3.16 µM) 17.6% | viability, T/C (second compound 0.0316 µM, first compound 10 µM) 13.4% | viability, T/C (second compound 0.1 µM, first compound 0.0316 µM) 12.7% | viability, T/C (second compound 0.1 µM, first compound 0.1 µM) 13.8% | viability, T/C (second compound 0.1 µM, first compound 0.316 µM) 15% | viability, T/C (second compound 0.1 µM, first compound 1 µM) 17.8% | viability, T/C (second compound 0.1 µM, first compound 3.16 µM) 17.4% | viability, T/C (second compound 0.1 µM, first compound 10 µM) 13.3% | viability, T/C (second compound 0.316 µM, first compound 0.0316 µM) 14.5% | viability, T/C (second compound 0.316 µM, first compound 0.1 µM) 15% | viability, T/C (second compound 0.316 µM, first compound 0.316 µM) 16.6% | viability, T/C (second compound 0.316 µM, first compound 1 µM) 17.1% | viability, T/C (second compound 0.316 µM, first compound 3.16 µM) 15.8% | viability, T/C (second compound 0.316 µM, first compound 10 µM) 13.1% | viability, T/C (second compound 1 µM, first compound 0.0316 µM) 16.2% | viability, T/C (second compound 1 µM, first compound 0.1 µM) 15.3% | viability, T/C (second compound 1 µM, first compound 0.316 µM) 17.7% | viability, T/C (second compound 1 µM, first compound 1 µM) 19.8% | viability, T/C (second compound 1 µM, first compound 3.16 µM) 19.6% | viability, T/C (second compound 1 µM, first compound 10 µM) 12.4%
< 31.6 nM: IC50 (second compound 0.00316 µM) | IC50 (second compound 0.01 µM) | IC50 (second compound 0.0316 µM) | IC50 (second compound 0.1 µM) | IC50 (second compound 0.316 µM) | IC50 (second compound 1 µM)

CCN1CCN(Cc2ccc(Nc3ncc(F)c(-c4cc(F)c5nc(C)n(C(C)C)c5c4)n3)nc2)CC1 + CCn1c(-c2cc(N3CCN(C)CC3)cnc2C(C)OC)c2c3cc(ccc31)-c1csc(n1)CC(NC(=O)C1CC1C)C(=O)N1CCCC(N1)C(=O)OCC(C)(C)C2
< 3.16 nM: IC50 (second compound 0.000949 µM) | IC50 (second compound 0.003 µM) | IC50 (second compound 0.00949 µM) | IC50 (second compound 0.03 µM) | IC50 (second compound 0.0949 µM) | IC50 (second compound 0.3 µM)
active: viability, T/C [13] 6.37% | viability, T/C [14] 6.88% | viability, T/C [15] 6.24% | viability, T/C [16] 6.47% | viability, T/C [17] 7.63% | viability, T/C [18] 14.4% | viability, T/C [19] 4.36% | viability, T/C [20] 4.91% | viability, T/C [21] 4.15% | viability, T/C [22] 4.09% | viability, T/C [23] 5.04% | viability, T/C [24] 8.84% | viability, T/C [25] 3.5% | viability, T/C [26] 3.29% | viability, T/C [27] 2.92% | viability, T/C [28] 2.88% | viability, T/C [29] 3.8% | viability, T/C [30] 6% | viability, T/C [31] 3.07% | viability, T/C [32] 2.94% | viability, T/C [33] 2.53% | viability, T/C [34] 2.95% | viability, T/C [35] 3.25% | viability, T/C [36] 4.38%
inactive: viability, T/C [1] 27.4% | viability, T/C [2] 24.3% | viability, T/C [3] 23.6% | viability, T/C [4] 23.9% | viability, T/C [5] 27.4% | viability, T/C [6] 30.4% | viability, T/C [7] 11.5% | viability, T/C [8] 11.9% | viability, T/C [9] 10.8% | viability, T/C [10] 11.4% | viability, T/C [11] 14.7% | viability, T/C [12] 21.5%
